Results from PubChem BioAssay (NCI).
Values joined by “and” are separate entries in the source; they are usually repeats but may differ in a detail not shown here. Equal values may be shown once.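 Dose response: 5 concentrations. Exposure: 48 h. Format: 96-well plates. Endpoint: linear interpolation; highest concentration if not reached. Here, GI50 denotes the concentration required for 50% inhibition of growth. The concentration for full growth arrest is given as TGI.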

Key:
Assay in all cases: NCI-60 cell line screen, 48 h
HCC-2998 colon = tested on: HCC-2998 colon
UACC-62 melanoma = tested on: UACC-62 melanoma
SNB-75 CNS = tested on: SNB-75 CNS
SF-295 CNS = tested on: SF-295 CNS
HCT-15 colon = tested on: HCT-15 colon
SF-268 CNS = tested on: SF-268 CNS
ACHN renal = tested on: ACHN renal
MDA-MB-435 = tested on: MDA-MB-435
786-0 renal = tested on: 786-0 renal
CAKI-1 renal = tested on: CAKI-1 renal

SMILES	GI50 (HCC-2998 colon) [µM]	TGI (HCC-2998 colon) [µM]	GI50 (UACC-62 melanoma)	TGI (UACC-62 melanoma)	GI50 (SNB-75 CNS)	TGI (SNB-75 CNS)	GI50 (SF-295 CNS)	TGI (SF-295 CNS)	GI50 (HCT-15 colon)	TGI (HCT-15 colon)	GI50 (SF-268 CNS)	TGI (SF-268 CNS)	GI50 (ACHN renal)	TGI (ACHN renal)	GI50 (MDA-MB-435) [µM]	TGI (MDA-MB-435)	GI50 (786-0 renal)	TGI (786-0 renal)	GI50 (CAKI-1 renal)	TGI (CAKI-1 renal)
O=C(O[C@H]1CN[C@H](C#Cc2cc3ncnc(Nc4ccc5c(ccn5Cc5cc(F)ccc5F)c4)c3s2)C1)N1CCOCC1	3.56	7.35	4.1 µM	9.3 µM	0.853 µM	6.21 µM	6.02 µM	17.7 µM	3.55 µM	17.5 µM	3.23 µM	8.8 µM	0.575 µM	> 25 µM	5.13	18.2 µM	4.55 µM	12.6 µM	0.187 µM	> 21.7 µM
Cc1ccccc1NC(=O)N/C(N)=N/c1nc(-c2cccc([N+](=O)[O-])c2)cs1	3.16	> 100	2.14 µM	12.8 µM	1.28 µM	3.62 µM	1.53 µM	3.62 µM	1.56 µM	34.6 µM	2.67 µM	8.88 µM	2.52 µM	8.46 µM	0.505	4.51 µM	2.21 µM	4.55 µM	1.16 µM	3.16 µM
NOCC(=O)O	> 100	> 100	34.4 µM	> 100 µM	> 100 µM	> 100 µM	> 100 µM	> 100 µM	> 100 µM	> 100 µM	> 100 µM	> 100 µM	> 100 µM	> 100 µM	> 100	> 100 µM	> 100 µM	> 100 µM	> 100 µM	> 100 µM
O=C1c2ccccc2-c2c1c1ccccc1c(=O)n2CCCNCCCn1ccnc1	0.894	2.38	1.72 µM	5.95 µM	2.61 µM	9.84 µM	0.419 µM	1.99 µM	0.44 µM	10.1 µM	3.12 µM	23.2 µM	0.252 µM	0.879 µM	1.72	5.51 µM	0.352 µM	2.24 µM	0.446 µM	2.95 µM
Cc1cc(C)c([O-])c(CN(C)CCN(C)Cc2cc(C)cc(C)c2[O-])c1.O=C([O-])c1cccc(C(=O)[O-])n1.[Ti+4]	2.98	> 100			1.67 µM	5.65 µM	2.57 µM	> 100 µM	3.5 µM	> 100 µM	3.91 µM	> 100 µM	2.43 µM	> 100 µM	2.89	> 100 µM	1.83 µM	> 100 µM	3.93 µM	> 100 µM
O=c1ccn(C2OC(CO)C(O)C2F)c(=O)[nH]1 (configuration not stated)		> 100	> 1000 µM	> 1000 µM		> 100 µM	> 1000 µM	> 1000 µM	> 1000 µM	> 1000 µM	> 1000 µM	> 1000 µM	> 1000 µM	> 1000 µM	> 1000	> 1000 µM	> 1000 µM	> 1000 µM	> 88.9 µM	> 100 µM
CC[C@H](NC(=O)[C@H](C)NC)C(=O)N1C[C@@H](O)C[C@H]1Cc1c(-c2[nH]c3cc(F)ccc3c2C[C@@H]2C[C@H](O)CN2C(=O)[C@H](CC)NC(=O)[C@H](C)NC)[nH]c2cc(F)ccc12	96.9	> 100	> 100 µM	> 100 µM	2.65 µM	> 100 µM	> 100 µM	> 100 µM	> 100 µM	> 100 µM	> 100 µM	> 100 µM	> 100 µM	> 100 µM		> 100 µM	> 100 µM	> 100 µM	> 100 µM	> 100 µM
CC(=O)[O-].CC(=O)[O-].[Pt+2].c1cscn1.c1cscn1	> 100	> 100	> 100 µM	> 100 µM	> 100 µM	> 100 µM	> 100 µM	> 100 µM	77.5 µM	> 100 µM	> 100 µM	> 100 µM	19.7 µM	42.2 µM	> 100	> 100 µM	> 100 µM	> 100 µM	> 100 µM	> 100 µM
COC(=O)c1cc2c(cc1Cl)SC(N(N(C)C)S(=O)(=O)c1ccc(Br)s1)=NS2(=O)=O	19.7	40.6	21.4 µM	50.6 µM	30.5 µM	88.7 µM	33.2 µM	97.3 µM	18 µM	33.6 µM	27.4 µM	67.3 µM	24.2 µM	54.1 µM	23.1	49.7 µM	35.1 µM	> 100 µM	28.3 µM	60.7 µM
O=C1c2ccccc2C(=O)N1CCCSc1ccccc1		> 100		> 100 µM		> 100 µM		> 100 µM		> 100 µM		> 100 µM		> 100 µM		> 100 µM		> 100 µM		> 100 µM
CO[C@@H]1/C=C\C=C(/C)C(=O)NC2=CC(=O)C(NCCN(C)C)=C(C[C@@H](C)C[C@@H](OC)[C@@H](O)[C@H](C)/C=C(\C)[C@H]1OC(N)=O)C2=O	0.0197			1.25 µM and 3.87 µM	< 0.0235 µM	0.977 µM and 6.15 µM	0.0278 µM	17.2 µM and 11.7 µM		4.06 µM and 10.9 µM	1.19 µM and 0.209 µM	16.5 µM and 16.2 µM	< 0.0167 µM and 0.0737 µM		< 0.0124	3.1 µM and 1.32 µM	0.0589 µM	15 µM and 26.9 µM	0.485 µM and 1.38 µM	12.2 µM and 29.2 µM
Cn1ccnc1CC(C)(O)c1ccccc1 (configuration not stated)		> 100		> 100 µM		> 100 µM		> 100 µM		> 100 µM		> 100 µM		> 100 µM		> 100 µM		> 100 µM		> 100 µM
CC(=O)N[C@H]1C=C[C@@H]2/C=C(C)/C=C/[C@@H](C)[C@H]([C@H](C)[C@H](O)[C@@H](C)NC(C)=O)OC(=O)/C=C/C=C(C)\C=C\[C@]2(C)C1	5.04	> 45	0.0228 µM and 0.0315 µM	4.65 µM and 13.3 µM	0.00243 µM and 0.0045 µM		0.00449 µM and 0.0045 µM		0.0361 µM and 0.00939 µM	4.65 µM and > 45 µM	0.126 µM and 0.0322 µM	4.65 µM and > 45 µM	0.0186 µM and 0.0045 µM	4.65 µM and > 45 µM	0.00823	4.65 µM	0.0242 µM and 0.0045 µM	4.65 µM and > 45 µM		
